Source: the supplement of paper PMC11208160

Assay: recombinant UMI read abundance after kanamycin selection (control-corrected) (log10(CPM+1)); higher = more efficient recombination; extreme values may be limits of the assay; sequences stand for … in AGTGCAGAGAAAATCGGCCAGTTTTCTCTGCCTGCAGTCCGCATGCCGTGGGACCCCTTGGGTTCTAACCTGTTGCCTAGATTTATGCAGCGGACTGCCTTTCTCCCAAAGTGATAAACCGG…AGGTTGGTTTCACT; site = the 11-nt donor
Summary of the method: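 Counts of recombinant UMIs were reported as log10(CPM+1). Before that, they were converted to CPM, averaged over replicates and scaled using control-derived factors. They came from PCR across the donor–target junction after Escherichia coli carrying the pair library and target plasmid was plated on IPTG (0.07 mM) plus kanamycin, or unselected, in two replicates each.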
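Also: IS621 bridge recombinase in Escherichia coli cells against a fixed T5 target plasmid.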

| Sequence | recombinant UMI read abundance (log10) |
| --- | --- |
| CCGTTCGCATGGACCGGTTTTCCCGGTAATCCGTATTTGTA (site CCGTTCGCTTA) | 0.827 |
| CCGTTCTCATGGACCGGTTTTCCCGGTAATCCGTATTTGGG (site CCATTCTCTCC) | 0.00249 |
| CCGTTCTCATGGACCGGTTTTCCCGGTAATCCGTATTTGGG (site CCCTTCTCTCC) | 0 |
| CCGTTCTCATGGACCGGTTTTCCCGGTAATCCGTATTTGGG (site CCGTTCTCTCC) | 0 |
| CCGTTCTCATGGACCGGTTTTCCCGGTAATCCGTATTTGGG (site CCTTTCTCTCC) | 0 |
| CCGTTGACATGGACCGGTTTTCCCGGTAATCCGTATTTGCT (site CCGTTAACTAG) | 0 |
| CCGTTGACATGGACCGGTTTTCCCGGTAATCCGTATTTGCT (site CCGTTCACTAG) | 0 |
| CCGTTGACATGGACCGGTTTTCCCGGTAATCCGTATTTGCT (site CCGTTGACTAG) | 1.05 |
| CCGTTGACATGGACCGGTTTTCCCGGTAATCCGTATTTGCT (site CCGTTTACTAG) | 0 |
| CCGTTTACATGGACCGGTTTTCCCGGTAATCCGTATTTGCC (site CCGTTTACTAG) | 0 |
| CCGTTTACATGGACCGGTTTTCCCGGTAATCCGTATTTGCC (site CCGTTTACTCG) | 0 |
| CCGTTTACATGGACCGGTTTTCCCGGTAATCCGTATTTGCC (site CCGTTTACTGG) | 0 |
| CCGTTTACATGGACCGGTTTTCCCGGTAATCCGTATTTGCC (site CCGTTTACTTG) | 0 |
| CCGTTTACATGGACCGGTTTTCCCGGTAATCCGTATTTGTT (site CCGTTTACTAA) | 0.175 |
| CCGTTTACATGGACCGGTTTTCCCGGTAATCCGTATTTGTT (site CCGTTTACTAC) | 0 |
| CCGTTTACATGGACCGGTTTTCCCGGTAATCCGTATTTGTT (site CCGTTTACTAG) | 0 |
| CCGTTTACATGGACCGGTTTTCCCGGTAATCCGTATTTGTT (site CCGTTTACTAT) | 0 |
| CCGTTTGCATGGACCGGTTTTCCCGGTAATCCGTATTTGCT (site CCGTTTACTAG) | 0 |
| CCGTTTGCATGGACCGGTTTTCCCGGTAATCCGTATTTGCT (site CCGTTTCCTAG) | 0 |
| CCGTTTGCATGGACCGGTTTTCCCGGTAATCCGTATTTGCT (site CCGTTTGCTAG) | 0 |
| CCGTTTGCATGGACCGGTTTTCCCGGTAATCCGTATTTGCT (site CCGTTTTCTAG) | 0 |
| CCGTTTGCATGGACCGGTTTTCCCGGTAATCCGTATTTGGT (site CCGTTTGCTAC) | 0.48 |
| CCTAAACCATGGACCGGTTTTCCCGGTAATCCGTATTTGAT (site CCTAAAACTAT) | 0 |
| CCTAAACCATGGACCGGTTTTCCCGGTAATCCGTATTTGAT (site CCTAAACCTAT) | 0 |
| CCTAAACCATGGACCGGTTTTCCCGGTAATCCGTATTTGAT (site CCTAAAGCTAT) | 0 |
| CCTAAACCATGGACCGGTTTTCCCGGTAATCCGTATTTGAT (site CCTAAATCTAT) | 0 |

| Sequence | recombinant UMI read abundance (log10) |
| --- | --- |
| CCTAAAGCATGGACCGGTTTTCCCGGTAATCCGTATTTGAC (site CCTAAAGCTAT) | 0 |
| CCTAAAGCATGGACCGGTTTTCCCGGTAATCCGTATTTGAC (site CCTAAAGCTCT) | 0.00302 |
| CCTAAAGCATGGACCGGTTTTCCCGGTAATCCGTATTTGAC (site CCTAAAGCTGT) | 0 |
| CCTAAAGCATGGACCGGTTTTCCCGGTAATCCGTATTTGAC (site CCTAAAGCTTT) | 0.0124 |
| CCTAAATCATGGACCGGTTTTCCCGGTAATCCGTATTTGAT (site CCTAAAACTAT) | 0 |
| CCTAAATCATGGACCGGTTTTCCCGGTAATCCGTATTTGAT (site CCTAAACCTAT) | 0 |
| CCTAAATCATGGACCGGTTTTCCCGGTAATCCGTATTTGAT (site CCTAAAGCTAT) | 0 |
| CCTAAATCATGGACCGGTTTTCCCGGTAATCCGTATTTGAT (site CCTAAATCTAT) | 0.00669 |
| CCTAACCCATGGACCGGTTTTCCCGGTAATCCGTATTTGAG (site CCTAACCCTCT) | 0.00788 |
| CCTAACGCATGGACCGGTTTTCCCGGTAATCCGTATTTGCT (site CCTAACGCTAG) | 0 |
| CCTAATACATGGACCGGTTTTCCCGGTAATCCGTATTTGCC (site CCTAATACTGA) | 0 |
| CCTAATACATGGACCGGTTTTCCCGGTAATCCGTATTTGCC (site CCTAATACTGC) | 0 |
| CCTAATACATGGACCGGTTTTCCCGGTAATCCGTATTTGCC (site CCTAATACTGG) | 0 |
| CCTAATACATGGACCGGTTTTCCCGGTAATCCGTATTTGCC (site CCTAATACTGT) | 0 |
| CCTAATACATGGACCGGTTTTCCCGGTAATCCGTATTTGGA (site CCTAATACTAC) | 0 |
| CCTAATACATGGACCGGTTTTCCCGGTAATCCGTATTTGGA (site CCTAATACTCC) | 0.00642 |
| CCTAATACATGGACCGGTTTTCCCGGTAATCCGTATTTGGA (site CCTAATACTGC) | 0 |
| CCTAATACATGGACCGGTTTTCCCGGTAATCCGTATTTGGA (site CCTAATACTTC) | 0.00465 |
| CCTAATACATGGACCGGTTTTCCCGGTAATCCGTATTTGGG (site CCTAATACTAC) | 0 |
| CCTAATACATGGACCGGTTTTCCCGGTAATCCGTATTTGGG (site CCTAATACTCC) | 0.011 |
| CCTAATACATGGACCGGTTTTCCCGGTAATCCGTATTTGGG (site CCTAATACTGC) | 0 |
| CCTAATACATGGACCGGTTTTCCCGGTAATCCGTATTTGGG (site CCTAATACTTC) | 0.0102 |
| CCTAATGCATGGACCGGTTTTCCCGGTAATCCGTATTTGAT (site CCTAAAGCTAT) | 0 |
| CCTAATGCATGGACCGGTTTTCCCGGTAATCCGTATTTGAT (site CCTAACGCTAT) | 0.00278 |
| CCTAATGCATGGACCGGTTTTCCCGGTAATCCGTATTTGAT (site CCTAAGGCTAT) | 0 |
| CCTAATGCATGGACCGGTTTTCCCGGTAATCCGTATTTGAT (site CCTAATGCTAT) | 0 |
